The text below walks through data of patent US20090197897A1, “Novel Oxadiazole Derivatives and Their Use as Positive Allosteric Modulators of Metabotropic Glutamate Receptors” (Addex Pharma SA, priority 2005, published 2009).

SMILES strings stand for the structures. Some results are limits rather than exact numbers.

One data set addresses T1, mGluR5 (Rattus norvegicus, UniProt P31424).
T1 construct: positive allosteric modulators of mGluR5 receptors in native preparations; endogenous in cells; host or cells: primary cortical astrocytes from Sprague-Dawley rat embryos (day 16 to 19)
Conditions: Liu et al 2006, Zhang et al 2005; cited from earlier work.

A further data set addresses T2, rat mGluR5 (Rattus norvegicus, UniProt P31424).
T2 construct: expressed in transfected cells
The data set can be described thus: mGluR5 assay on HEK-expressing rat mGluR5 (fluorescent cell based Ca2+ mobilization assay). To be noted: for activation of rat mGluR5 receptors in HEK-rat mGluR5 cell line: without co-addition of glutamate or mGluR5 agonist; for EC50: HEK-293 cells stably expressing rat mGluR5, no co-addition of glutamate, mean of at least three independent experiments in duplicate, read-out: Ca++ Flux (mean EC50). As to the method: mGluR5 Assay on HEK-Expressing Rat mGluR5
Positive functional expression of HEK-293 cells stably expressing rat mGluR5 receptor was determined by measuring intracellular Ca^2+ changes using a Fluorometric Imaging Plate Reader (FLIPR, Molecular Devices, Sunnyvale, Calif.) in response to glutamate or selective known mGluR5 agonists and antagonists. Rat mGluR5 RT-PCR products in HEK-293 cells were sequenced and found 100% identical to rat mGluR5 Genbank reference sequence (NM_017012). HEK-293 cells expressing rmGluR5 were maintained in media containing DMEM, dialyzed Fetal Bovine Serum (10%), Glutamax™ (2 mM), Penicillin (100 units/ml), Streptomycin (100 μg/ml), Geneticin (100 μg/ml) and Hygromycin-B (40 μg/ml) at 37° C./5% CO2.
After one day of incubation, cells were washed with assay buffer containing: 142 mM NaCl, 6 mM KCl, 1 mM […], 1 mM CaCl2, 20 mM HEPES, 1 g/L glucose, 0.125 mM sulfinpyrazone, pH 7.4. After 60 min of loading with 4 uM Fluo-4 (TefLabs, Austin, Tex.), the cells were washed three times with 50 μl of PBS Buffer and resuspended in 45 μl of assay Buffer. The plates were then transferred to a Fluorometric Imaging Plate Reader (FLIPR, Molecular Devices, Sunnyvale, Calif.) for the assessment of intracellular calcium flux. After monitoring the baseline fluorescence for 10 seconds, increasing concentrations of representative compound (from 0.01 to 60 μM) of the present invention diluted in Assay Buffer (15 μl of 4× dilutions) was added to the cell. The final DMSO concentration in the assay was 0.3%. In each experiment, fluorescence was then monitored as a function of time for 3 minutes and the data analyzed using Microsoft Excel and GraphPad Prism. Each data point was also measured two times.
Under these experimental conditions, this HEK-rat mGluR5 cell line is able to directly detect positive allosteric modulators without the need of co-addition of glutamate or mGluR5 agonist.
The concentration-response curves of representative compounds of the present invention were generated using the Prism GraphPad software (Graph Pad Inc, San Diego, USA). The curves were fitted to a four-parameter logistic equation:
(Y=Bottom+(Top−Bottom)/(1+10̂((Log EC50−X)*Hill Slope)
allowing determination of EC50 values.
The Table 1 below represents the mean EC50 obtained from at least three independent experiments of selected molecules performed in duplicate.
On the technique in general: Calcium flux is commonly read through the fluorescence of an indicator in the cells.

Usually EC50 stands for the concentration that produces a half-maximal response. The melting point is the temperature, or range, at which the solid turns liquid.

T2 sequence (P31424 21-1171 isoform P31424-2 limits assumed): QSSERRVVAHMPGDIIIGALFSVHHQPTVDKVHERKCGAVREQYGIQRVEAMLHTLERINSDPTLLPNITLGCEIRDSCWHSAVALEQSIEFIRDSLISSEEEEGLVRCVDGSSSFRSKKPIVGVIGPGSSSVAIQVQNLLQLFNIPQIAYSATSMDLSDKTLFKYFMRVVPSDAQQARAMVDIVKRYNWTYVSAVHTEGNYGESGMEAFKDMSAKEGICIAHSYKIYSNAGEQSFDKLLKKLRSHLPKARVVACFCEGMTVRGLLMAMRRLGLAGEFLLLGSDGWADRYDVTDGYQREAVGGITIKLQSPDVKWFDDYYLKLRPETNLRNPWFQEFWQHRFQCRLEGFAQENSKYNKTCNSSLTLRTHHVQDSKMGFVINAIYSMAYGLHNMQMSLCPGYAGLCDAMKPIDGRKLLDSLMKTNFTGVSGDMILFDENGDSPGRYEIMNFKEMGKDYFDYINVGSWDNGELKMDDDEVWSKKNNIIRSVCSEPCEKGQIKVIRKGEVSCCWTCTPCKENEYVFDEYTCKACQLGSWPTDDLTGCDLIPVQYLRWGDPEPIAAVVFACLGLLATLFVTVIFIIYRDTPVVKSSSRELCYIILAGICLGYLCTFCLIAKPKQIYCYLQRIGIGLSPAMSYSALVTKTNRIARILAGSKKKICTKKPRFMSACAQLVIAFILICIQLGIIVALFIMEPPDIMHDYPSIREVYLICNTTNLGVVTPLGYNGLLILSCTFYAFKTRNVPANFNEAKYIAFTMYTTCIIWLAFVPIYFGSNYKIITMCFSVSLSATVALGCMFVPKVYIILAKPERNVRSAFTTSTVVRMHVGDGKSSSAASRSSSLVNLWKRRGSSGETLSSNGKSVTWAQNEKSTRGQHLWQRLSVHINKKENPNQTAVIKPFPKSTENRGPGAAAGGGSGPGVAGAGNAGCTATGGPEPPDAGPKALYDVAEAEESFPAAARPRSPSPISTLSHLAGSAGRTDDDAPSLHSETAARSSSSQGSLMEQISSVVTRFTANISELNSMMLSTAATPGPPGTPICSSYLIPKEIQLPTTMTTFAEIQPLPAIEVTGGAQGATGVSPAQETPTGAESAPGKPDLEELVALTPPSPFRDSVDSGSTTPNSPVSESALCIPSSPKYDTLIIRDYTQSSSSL
T1 sequence (P31424 21-1203): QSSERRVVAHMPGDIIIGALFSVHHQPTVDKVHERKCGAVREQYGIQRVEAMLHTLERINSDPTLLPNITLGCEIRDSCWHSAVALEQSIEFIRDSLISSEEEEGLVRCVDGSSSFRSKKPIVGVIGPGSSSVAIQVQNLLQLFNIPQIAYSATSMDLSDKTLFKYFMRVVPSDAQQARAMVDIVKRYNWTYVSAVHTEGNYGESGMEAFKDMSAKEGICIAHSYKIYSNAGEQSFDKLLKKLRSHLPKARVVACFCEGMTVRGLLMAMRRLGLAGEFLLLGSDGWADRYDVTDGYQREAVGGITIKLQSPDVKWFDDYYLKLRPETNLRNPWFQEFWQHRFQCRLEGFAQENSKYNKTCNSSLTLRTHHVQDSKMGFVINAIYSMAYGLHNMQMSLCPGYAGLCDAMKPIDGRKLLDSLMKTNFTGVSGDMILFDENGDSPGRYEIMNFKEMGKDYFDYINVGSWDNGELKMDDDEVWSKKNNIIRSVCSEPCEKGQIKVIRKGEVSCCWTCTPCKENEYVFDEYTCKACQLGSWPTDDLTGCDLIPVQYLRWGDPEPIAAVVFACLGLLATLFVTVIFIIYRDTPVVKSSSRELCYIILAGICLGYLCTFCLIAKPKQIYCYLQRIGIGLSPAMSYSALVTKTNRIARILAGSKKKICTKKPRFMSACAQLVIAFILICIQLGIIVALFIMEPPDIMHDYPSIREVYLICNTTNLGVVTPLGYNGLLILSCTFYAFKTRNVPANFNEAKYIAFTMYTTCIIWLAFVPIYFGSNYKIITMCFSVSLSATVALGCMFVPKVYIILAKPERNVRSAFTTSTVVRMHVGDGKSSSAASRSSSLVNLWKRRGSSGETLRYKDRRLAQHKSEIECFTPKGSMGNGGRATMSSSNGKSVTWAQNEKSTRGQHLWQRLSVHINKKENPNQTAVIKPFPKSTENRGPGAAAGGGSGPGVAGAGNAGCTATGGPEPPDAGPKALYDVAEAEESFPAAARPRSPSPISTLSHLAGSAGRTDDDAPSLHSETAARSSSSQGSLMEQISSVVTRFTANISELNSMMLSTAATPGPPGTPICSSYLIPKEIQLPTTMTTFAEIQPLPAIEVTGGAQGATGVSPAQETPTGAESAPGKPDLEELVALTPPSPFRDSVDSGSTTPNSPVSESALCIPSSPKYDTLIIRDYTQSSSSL

On to `Fc1cccc(/C=N/N=C/c2cccc(F)c2)c1` [DFB, reference compound], for which the “activity in rat cortical astrocytes culture in the absence of added glutamate” value on mGluR5 is “inactive”. For the same molecule, the “activation of rat mGluR5 receptors in HEK-rat mGluR5 cell line” value on rat mGluR5 is “activating”.
`O=C(C1CCCCC1)N1CCC[C@H](c2nc(-c3ccc(F)cc3)no2)C1` [Example 10, Cyclohexyl-{(S)-3-[3-(4-fluoro-phenyl)-[1,2,4]oxadiazol-5-yl]-piperidin-1-yl}-methanone] registered a melting point of 80 to 85 °C. In addition, on rat mGluR5, the EC50 is 1000 to 10000 nM.
On the same counts, the results for `O=C(c1ccc(F)c(F)c1)N1CCC[C@H](c2nc(-c3ccccn3)no2)C1` [Example 54, (3,4-Difluoro-phenyl)-[(S)-3-(3-pyridin-2-yl-[1,2,4]oxadiazol-5-yl)-piperidin-1-yl]-methanone] are 135 to 137 °C and below 1000 nM.
The matching figures for `O=C(c1ccc(F)cc1)N1CCCC1Cc1nc(-c2ccc(F)cc2)no1` (centres unmarked) [Example 2, (4-Fluoro-phenyl)-{2-[3-(4-fluoro-phenyl)-[1,2,4]oxadiazol-5-ylmethyl]-pyrrolidin-1-yl}-methanone]: 158 to 162 °C and 1000 to 10000 nM.
In turn, `O=C(c1ccc(F)c(F)c1)N1CCC[C@H](c2nc(-c3cscn3)no2)C1` [Example 51, (3,4-Difluoro-phenyl)-[(S)-3-(3-thiazol-4-yl-[1,2,4]oxadiazol-5-yl)-piperidin-1-yl]-methanone] yielded a melting point of 107 to 109 °C. For the same molecule, the concentration giving a half-maximal response (EC50) on rat mGluR5 was 1000 to 10000 nM.
The matching figures for `Cc1cnccc1C(=O)N1CCC[C@H](c2nc(-c3ccc(F)cc3)no2)C1` [Example 27, (S)-{3-[3-(4-Fluoro-phenyl)-[1,2,4]oxadiazol-5-yl]-piperidin-1-yl}-(3-methyl-pyridin-4-yl)-methanone]: 59 to 63 °C and 1000 to 10000 nM.
The matching figures for `Cc1ncccc1C(=O)N1CCC[C@H](c2nc(-c3ccc(F)cc3)no2)C1` [Example 16, {(S)-3-[3-(4-Fluoro-phenyl)-[1,2,4]oxadiazol-5-yl]-piperidin-1-yl}-(2-methyl-pyridin-3-yl)-methanone]: 115 to 116 °C and 1000 to 10000 nM.
For the molecule `COc1cc(C(=O)N2CCC[C@H](c3nc(-c4ccc(F)cc4)no3)C2)ccc1F` [Example 26, (S)-(4-Fluoro-3-methoxy-phenyl)-{3-[3-(4-fluoro-phenyl)-[1,2,4]oxadiazol-5-yl]-piperidin-1-yl}-methanone], the melting point lay within 109 to 111 °C. Also, the concentration for a half-maximal effect (EC50) at rat mGluR5 was 1000 to 10000 nM.
The matching figures for `O=C(c1c(F)cc(F)cc1F)N1CCC[C@H](c2nc(-c3ccc(F)cc3)no2)C1` [Example 12, {(S)-3-[3-(4-Fluoro-phenyl)-[1,2,4]oxadiazol-5-yl]-piperidin-1-yl}-(2,4,6-trifluoro-phenyl)-methanone]: 125 to 130 °C and 1000 to 10000 nM.
On the same counts, the results for `O=C(c1ccccc1)c1cccc(C(=O)N2CCC[C@H](c3nc(-c4ccc(F)cc4)no3)C2)c1` [Example 11, (3-Benzoyl-phenyl)-{(S)-3-[3-(4-fluoro-phenyl)-[1,2,4]oxadiazol-5-yl]-piperidin-1-yl}-methanone] are 158 to 163 °C and 1000 to 10000 nM.
The matching figures for `O=C(c1ccc(F)c(F)c1)N1CCC[C@H](c2nc(-c3ccncc3)no2)C1` [Example 52, (3,4-Difluoro-phenyl)-[(S)-3-(3-pyridin-4-yl-[1,2,4]oxadiazol-5-yl)-piperidin-1-yl]-methanone]: 102 to 106 °C and below 1000 nM.
For `O=C(c1ccc(F)cc1)N1CCC[C@H](c2nc(-c3cscn3)no2)C1` [Example 50, (4-Fluoro-phenyl)-[(S)-3-(3-thiazol-4-yl-[1,2,4]oxadiazol-5-yl)-piperidin-1-yl]-methanone], the melting point was 118 to 120 °C. Besides, the EC50 on rat mGluR5 was in the range of 1000 to 10000 nM.
`O=C(C1CCSCC1)N1CCC[C@H](c2nc(-c3ccc(F)cc3)no2)C1` [Example 7, {(S)-3-[3-(4-Fluoro-phenyl)-[1,2,4]oxadiazol-5-yl]-piperidin-1-yl}-(tetrahydro-thiopyran-4-yl)-methanone] came in with a melting point of 139 to 141 °C. At rat mGluR5, the EC50 is 1000 to 10000 nM.
For the molecule `O=C(Nc1ccc(Cl)cc1CN1C(=O)c2ccccc2C1=O)c1ccccc1O` [CPPHA, reference compound], at mGluR5, the “activity in rat cortical astrocytes culture in the absence of added glutamate” value was “inactive”. For the same molecule, at rat mGluR5, the “activation of rat mGluR5 receptors in HEK-rat mGluR5 cell line” value is listed as “activating”.
Take `N#Cc1cc(C(=O)N2CCC[C@H](c3nc(-c4ccc(F)cc4)no3)C2)ccc1F` [Example 3, 2-Fluoro-5-{(S)-3-[3-(4-fluoro-phenyl)-[1,2,4]oxadiazol-5-yl]-piperidine-1-carbonyl}-benzonitrile]: the melting point lay within 144 to 146 °C. The EC50 on rat mGluR5 fell in the range of 1000 to 10000 nM.
Turning to `O=C(c1ccc(F)c(F)c1)N1CCC[C@H](c2nc(-c3ccsc3)no2)C1` [Example 45, (3,4-Difluoro-phenyl)-[(S)-3-(3-thiophen-3-yl-[1,2,4]oxadiazol-5-yl)-piperidin-1-yl]-methanone], the melting point was 92 to 97 °C. Also, the 50% effective concentration (EC50) on rat mGluR5 is below 1000 nM.
The matching figures for `O=C(c1ccnc(F)c1)N1CCC[C@H](c2nc(-c3ccc(F)cc3)no2)C1` [Example 77, {(S)-3-[3-(4-Fluoro-phenyl)-[1,2,4]oxadiazol-5-yl]-piperidin-1-yl}-(2-fluoro-pyridin-4-yl)-methanone]: 93 to 95 °C and below 1000 nM.
With `O=C(c1ccc(F)cc1)N1CCC=C(c2nc(-c3ccc(F)cc3)no2)C1` [Example 1, (4-Fluoro-phenyl)-{5-[3-(4-fluoro-phenyl)-[1,2,4]oxadiazol-5-yl]-3,6-dihydro-2H-pyridin-1-yl}-methanone], the melting point was in the range of 138 to 140 °C. The EC50 on rat mGluR5 was in the range of 1000 to 10000 nM.
The matching figures for `O=C(c1cccc2c1OCCO2)N1CCC[C@H](c2nc(-c3ccc(F)cc3)no2)C1` [Example 25, (S)-(2,3-Dihydro-benzo[1,4]dioxin-5-yl)-{3-[3-(4-fluoro-phenyl)-[1,2,4]oxadiazol-5-yl]-piperidin-1-yl}-methanone]: 57 to 60 °C and 1000 to 10000 nM.
In turn, `CN(C)c1ccc(-c2noc([C@H]3CCCN(C(=O)c4ccc(F)cc4)C3)n2)cc1` [Example 58, {(S)-3-[3-(4-Dimethylamino-phenyl)-[1,2,4]oxadiazol-5-yl]-piperidin-1-yl}-(4-fluoro-phenyl)-methanone] displayed a melting point of 147 to 153 °C. Also, the EC50 on rat mGluR5 is above 10000 nM.
Molecule `Cc1cc(C(=O)N2CCC[C@H](c3nc(-c4ccc(F)cc4)no3)C2)c(C)o1` [Example 23, (2,5-Dimethyl-furan-3-yl)-{(S)-3-[3-(4-fluoro-phenyl)-[1,2,4]oxadiazol-5-yl]-piperidin-1-yl}-methanone] yielded a melting point of 114 to 118 °C. On rat mGluR5, the EC50 was below 1000 nM.
The matching figures for `Cc1c[nH]cc1C(=O)N1CCC[C@H](c2nc(-c3ccc(F)cc3)no2)C1` [Example 43, {(S)-3-[3-(4-Fluoro-phenyl)-[1,2,4]oxadiazol-5-yl]-piperidin-1-yl}-(4-methyl-1H-pyrrol-3-yl)-methanone]: 167.5 to 168.9 °C and 1000 to 10000 nM.
